Laboratory results published in patent publication US20220144847A1, “HETEROCYCLIC COMPOUND, PHARMACEUTICAL COMPOSITION COMPRISING SAME, PREPARATION METHOD THEREFOR, AND USE THEREOF” (Sichuan Kelun-Biotech Biopharmaceutical Co., Ltd., priority 2019, published 2022).

Key:
Assay type in all cases: biochemical
[1] = biological target: T1, RET-CCDC6 (Homo sapiens, UniProt P07949); assay: RET inhibition experiment (HTRF KinEASE-TK kit), fusion-type RET enzyme; details: read-out: The IC50 (nM) for inhibiting RET-CCDC6
T1 construct: CCDC6 fusion partner (Q16204 for human); the other entry of the earlier key: CCDC6 (Q16204, Coiled-coil domain-containing protein 6)
T1 sequence (P07949 with tags, fused parts or gaps): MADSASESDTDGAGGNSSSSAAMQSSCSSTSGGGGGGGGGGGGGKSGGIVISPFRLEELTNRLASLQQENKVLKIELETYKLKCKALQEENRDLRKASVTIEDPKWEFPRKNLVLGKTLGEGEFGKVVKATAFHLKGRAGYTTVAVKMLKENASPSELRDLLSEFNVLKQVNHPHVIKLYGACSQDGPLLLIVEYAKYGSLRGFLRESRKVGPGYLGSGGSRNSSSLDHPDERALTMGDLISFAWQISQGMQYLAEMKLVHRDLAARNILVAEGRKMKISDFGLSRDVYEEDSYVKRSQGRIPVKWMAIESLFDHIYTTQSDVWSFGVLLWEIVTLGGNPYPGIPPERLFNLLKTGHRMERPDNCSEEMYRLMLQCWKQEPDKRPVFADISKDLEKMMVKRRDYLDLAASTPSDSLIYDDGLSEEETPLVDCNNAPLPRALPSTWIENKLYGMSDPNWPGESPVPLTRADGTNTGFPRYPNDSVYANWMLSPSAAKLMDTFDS
Protocol: (§1) Experimental method: […] After incubation at room temperature for 40 min, TK antibody-cryptate and streptavidin-XL665 were added, and the test was performed after incubation at room temperature for 45 min. With the solvent group (DMSO) as the negative control and the buffer group (without RET enzyme) as the blank control, the relative inhibitory activity percentages (i.e., inhibition rates) of different concentrations of the compounds were computed as per the following formula: […] The relative inhibitory activity percentages of different concentrations of the compounds were plotted with respect to the compound concentrations, and the curve was fitted according to a four-parameter model to compute the IC50 value as per the following formula: y=min+(max-min)/(1+(x/IC50)^(-Hillslope)) where y is the relative inhibitory activity percentage, max is the maximum value of the fitted curve, min is the minimum value of the fitted curve, x is the logarithmic concentration of the compound, and Hillslope is the slope of the curve.

[2] = biological target: RET-V804L (Homo sapiens, UniProt P07949, V804L); assay: RET inhibition experiment (HTRF KinEASE-TK kit), mutant RET-V804L; details: read-out: The IC50 (nM) for inhibiting RET-V804L
Protocol: as §1

[3] = biological target: RET-M918T (Homo sapiens, UniProt P07949, M918T); assay: RET inhibition experiment (HTRF KinEASE-TK kit), mutant RET-M918T; details: read-out: The IC50 (nM) for inhibiting the enzyme RET-M918T
Protocol: as §1

[4] = biological target: VEGFR2 (Homo sapiens, UniProt P35968); assay: VEGFR2 inhibition experiment (HTRF KinEASE-TK kit); details: read-out: Inhibition rate on VEGFR2; for inhibition at 0.1 µM: 100 nM
How it was run: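 HTRF KinEASE-TK format: enzyme and compound were preincubated 30 min at room temperature, then substrate and ATP added for 40 min, followed by cryptate antibody/streptavidin-XL665 detection for 45 min. Inhibition was normalised to DMSO and no-enzyme controls; IC50 from a four-parameter fit.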

[5] = biological target: RET-V804M (Homo sapiens, UniProt P07949, V804M); assay: RET inhibition experiment (HTRF KinEASE-TK kit), mutant RET-V804M; details: read-out: The IC50 (nM) for inhibiting V804M
How it was run: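 Enzyme was pre-incubated with compound at room temperature for 30 min, then substrate and ATP were added for a 40 min reaction. HTRF signal was read after 45 min with TK antibody-cryptate and streptavidin-XL665. IC50 came from a four-parameter fit of percent inhibition against DMSO and no-enzyme controls.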

[6] = biological target: RET-WT (Homo sapiens, UniProt P07949); assay: RET inhibition experiment (HTRF KinEASE-TK kit), wild-type RET enzyme; details: read-out: The IC50 (nM) for inhibiting RET-WT
Protocol: as §1

Chain of RET-V804M (P07949 29-1114 V804M): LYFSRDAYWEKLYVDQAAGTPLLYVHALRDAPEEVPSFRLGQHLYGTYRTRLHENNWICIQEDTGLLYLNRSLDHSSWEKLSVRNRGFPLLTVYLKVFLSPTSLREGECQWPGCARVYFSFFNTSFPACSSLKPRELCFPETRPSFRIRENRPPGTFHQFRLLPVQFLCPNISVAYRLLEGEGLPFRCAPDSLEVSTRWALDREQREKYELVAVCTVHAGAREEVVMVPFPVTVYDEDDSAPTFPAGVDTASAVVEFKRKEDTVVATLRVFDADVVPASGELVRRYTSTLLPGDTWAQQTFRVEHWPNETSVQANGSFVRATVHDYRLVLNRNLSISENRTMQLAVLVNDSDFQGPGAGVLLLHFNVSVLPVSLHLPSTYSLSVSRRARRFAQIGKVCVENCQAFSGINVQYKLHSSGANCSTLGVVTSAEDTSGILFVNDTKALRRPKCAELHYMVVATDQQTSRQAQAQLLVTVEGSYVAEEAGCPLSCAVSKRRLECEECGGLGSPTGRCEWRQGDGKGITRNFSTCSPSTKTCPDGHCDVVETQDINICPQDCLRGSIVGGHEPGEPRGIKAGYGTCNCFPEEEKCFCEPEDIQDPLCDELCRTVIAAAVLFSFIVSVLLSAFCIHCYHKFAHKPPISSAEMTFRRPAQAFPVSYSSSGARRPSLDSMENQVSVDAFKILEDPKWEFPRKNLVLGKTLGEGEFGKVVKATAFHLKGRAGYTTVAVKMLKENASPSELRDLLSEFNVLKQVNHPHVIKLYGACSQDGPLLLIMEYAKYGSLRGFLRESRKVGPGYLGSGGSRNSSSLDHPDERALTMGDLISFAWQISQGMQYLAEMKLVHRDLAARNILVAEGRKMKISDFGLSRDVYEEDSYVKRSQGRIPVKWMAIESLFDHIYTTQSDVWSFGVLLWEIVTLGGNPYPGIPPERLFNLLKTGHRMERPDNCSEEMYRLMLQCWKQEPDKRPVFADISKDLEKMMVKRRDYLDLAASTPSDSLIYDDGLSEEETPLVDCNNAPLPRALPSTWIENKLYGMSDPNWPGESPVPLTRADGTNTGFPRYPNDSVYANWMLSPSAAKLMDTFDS
Chain of VEGFR2 (P35968 20-1356, species assumed): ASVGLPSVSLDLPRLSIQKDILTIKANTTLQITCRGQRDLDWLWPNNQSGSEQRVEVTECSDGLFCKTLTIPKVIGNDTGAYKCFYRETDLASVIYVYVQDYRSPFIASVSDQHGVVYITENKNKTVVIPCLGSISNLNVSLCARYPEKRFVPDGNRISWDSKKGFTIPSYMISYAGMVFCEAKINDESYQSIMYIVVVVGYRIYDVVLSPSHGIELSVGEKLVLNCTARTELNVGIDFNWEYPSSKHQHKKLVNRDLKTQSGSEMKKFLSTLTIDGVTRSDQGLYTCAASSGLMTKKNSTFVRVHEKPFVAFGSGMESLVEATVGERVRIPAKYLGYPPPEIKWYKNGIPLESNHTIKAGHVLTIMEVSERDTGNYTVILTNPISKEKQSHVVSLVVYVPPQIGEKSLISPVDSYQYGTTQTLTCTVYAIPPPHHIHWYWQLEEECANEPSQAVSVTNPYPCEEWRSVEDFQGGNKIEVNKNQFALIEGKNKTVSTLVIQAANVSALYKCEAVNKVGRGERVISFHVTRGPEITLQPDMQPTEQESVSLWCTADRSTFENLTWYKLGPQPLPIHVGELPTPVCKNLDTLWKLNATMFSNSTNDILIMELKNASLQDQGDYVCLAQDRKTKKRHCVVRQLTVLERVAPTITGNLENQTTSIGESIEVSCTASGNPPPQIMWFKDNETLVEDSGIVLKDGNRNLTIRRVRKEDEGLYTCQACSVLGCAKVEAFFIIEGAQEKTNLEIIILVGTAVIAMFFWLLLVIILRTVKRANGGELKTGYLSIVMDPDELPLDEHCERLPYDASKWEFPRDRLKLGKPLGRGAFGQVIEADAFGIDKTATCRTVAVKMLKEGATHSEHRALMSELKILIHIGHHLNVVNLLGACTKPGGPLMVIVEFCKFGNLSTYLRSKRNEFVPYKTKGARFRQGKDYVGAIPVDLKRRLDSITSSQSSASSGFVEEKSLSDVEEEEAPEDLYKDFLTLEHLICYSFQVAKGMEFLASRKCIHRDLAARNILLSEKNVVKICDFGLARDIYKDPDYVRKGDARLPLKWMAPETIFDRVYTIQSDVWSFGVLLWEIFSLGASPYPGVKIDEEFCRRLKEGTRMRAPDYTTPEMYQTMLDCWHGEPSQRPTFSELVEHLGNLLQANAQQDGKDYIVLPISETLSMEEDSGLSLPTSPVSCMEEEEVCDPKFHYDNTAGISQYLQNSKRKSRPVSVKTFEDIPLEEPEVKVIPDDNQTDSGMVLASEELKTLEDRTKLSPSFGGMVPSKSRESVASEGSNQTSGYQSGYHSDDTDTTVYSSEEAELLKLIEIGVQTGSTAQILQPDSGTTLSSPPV
Chain of RET-WT (P07949 29-1114): as the sequence (P07949 29-1114 V804M) above, with M776V counted along it
Chain of RET-M918T (P07949 29-1114 M918T): as the sequence (P07949 29-1114 V804M) above, with M776V, M890T counted along it
Chain of RET-V804L (P07949 29-1114 V804L): as the sequence (P07949 29-1114 V804M) above, with M776L counted along it

Work on Cc1cc(Nc2cc(C)[nH]n2)nc(-c2ccc(N3CC4CC(C3)N4Cc3ccc(-n4ccc(C5CC5)n4)nc3)nc2)n1 [Compound 120, 2-(6-(6-((6-(3-cyclopropyl-1H-pyrazol-1-yl)pyridin-3-yl)methyl)-3,6-diazabicyclo[3.1.1]heptan-3-yl)pyridin-3-yl)-6-methyl-N-(5-methyl-1H-pyrazol-3-yl)pyrimidin-4-amine] yielded an IC50 [1] of 18.7 ± 7.27 nM, an IC50 [2] of 10.1 ± 1.05 nM and an IC50 [3] of 15.8 ± 3.65 nM. It also gave an inhibition at 0.1 µM [4] of 28%, an IC50 [5] of 9.12 ± 1.85 nM and an IC50 [6] of 7.33 ± 1.19 nM.
With Cc1cc(Nc2cc(C)[nH]n2)nc(-c2ccc(N3CC4CC(C3)N4Cc3ccc(-n4cccn4)nc3)nc2)n1 [Compound 60, 2-(6-(6-((6-(1H-pyrazol-1-yl)pyridin-3-yl)methyl)-3,6-diazabicyclo[3.1.1]heptan-3-yl)pyridin-3-yl)-6-methyl-N-(5-methyl-1H-pyrazol-3-yl)pyrimidin-4-amine] the IC50 [1] was 3.99 ± 0.79 nM, the IC50 [2] was 5.07 ± 0.4 nM and the IC50 [3] was 1.29 ± 0.27 nM. For the same molecule, the inhibition at 0.1 µM [4] was 65%, the IC50 [5] was 3.77 ± 0.52 nM and the IC50 [6] was 2.7 ± 0.69 nM.
Work on Cc1cc(Nc2cc(C)[nH]n2)nc(-c2ccc(N3CC4CC(C3)N4Cc3ccc(-n4ncc(F)c4C)nc3)nc2)n1 [Compound 122, 2-(6-(6-((6-(4-fluoro-5-methyl-1H-pyrazol-1-yl)pyridin-3-yl)methyl)-3,6-diazabicyclo[3.1.1]heptan-3-yl)pyridin-3-yl)-6-methyl-N-(5-methyl-1H-pyrazol-3-yl)pyrimidin-4-amine] yielded an IC50 [1] of 2.91 ± 0.41 nM, an IC50 [2] of 4.79 ± 1.68 nM and an IC50 [3] of 4.03 ± 0.66 nM. For the same molecule, the inhibition at 0.3 µM ([4]; 300 nM) was 67%, the IC50 [5] was 3.33 ± 0.75 nM and the IC50 [6] was 2.35 ± 0.24 nM.
